One compound from patent US11725015B2, “Macrocyclic compound and uses thereof” (President and Fellows of Harvard College, priority 2017, dated 2023) can be followed below.

The test system of test [1] is human breast cancer cell line HCC1954. Nature of the test: HCC1954 growth inhibition assay. The test is classed as cell-based. The conditions noted are these: 3 days incubation, CellTiter-Glo. How it is done:
In this assay, the growth inhibitory activity of test compounds in a human breast cancer cell line HCC1954 was measured. HCC1954 cells were maintained in an RPMI-1640 medium modified to contain 2 mM L-glutamine, 10 mM HEPES, 1 mM sodium pyruvate, 4500 mg/L glucose, and 1500 mg/L sodium bicarbonate (ATCC 30-2001) containing 10% fetal bovine serum (FBS: Nichirei, 12D168), and penicillin and streptomycin in a 5% CO2 incubator (37° C.). To each well of a 96 well plate (Becton, Dickinson and Company, 353219), 75 μL of HCC1954 cell suspension adjusted to a concentration of 4×10^4 cells/mL with the culture medium was added, and the cells were incubated overnight in a 5% CO2 incubator (37° C.). On the next day, 25 μL of Compound (1) or Halichondrin B in three-fold dilution series suspended in the culture medium was added to each well, and the resultant was incubated for 3 days in a 5% CO2 incubator (37° C.). Then, cell viability was determined by CellTiter-Glo® Luminescent Cell Viability Assay (Promega) with EnVision 2103 Multilabel Reader (Perkin-Elmer, Wellesley, Mass.). Value of the wells containing cells without adding the test compounds was defined as 100% and the value of the wells containing no cells was defined as 0%. The concentration of the test compound necessary for inhibiting the cell growth by 50% (i.e., an IC50 value) was calculated, and shown in Table 3.
(In ATP-based viability assays light output follows the ATP content of the culture.)

Test [2] deals with OSC-19 subcutaneous xenograft. Nature of the test: Antitumor activity against OSC-19 subcutaneous xenograft model in mice as monotherapy. It is filed as in vivo. The conditions noted are these: Q7D×2. How it is done: A human squamous cell carcinoma of the head and neck (SCCHN) cell line OSC-19, which had been cultured in an DMEM/Ham's F-12 (1:1) medium containing 10% FBS, and penicillin and streptomycin, was adjusted to a concentration of 1×10^8 cells/ml with PBS to prepare a cell suspension, and the suspension was mixed with Matrigel™ (BD Bioscience, #366237) in a ratio of 1:1 to prepare a cell suspension in a concentration of 5×10^7 cell/mL. The cell suspension was inoculated in a volume of 100 μL into a subcutaneous part of a right flank of nude mice, 5 weeks of ages (CAnN.Cg-Foxnlnu/CrlCrlj, female, Charles River Laboratories Japan, Inc.).
On the basis of the volumes of tumors obtained on the first day of administration, the mice were grouped such that averages of the tumor volumes were substantially equal among the groups. The experiment was conducted on groups each consisting of 6 mice. Test compound was dissolved in saline and intravenously administered at doses from 0.06 mg/kg to 0.18 mg/kg once a week for 2 weeks (Q7D×2 schedule).

Test [3] concerns microtubule dynamics in U2OS-EB3-AG osteosarcoma cell line. Nature of the test: Cell-based microtubule dynamics assay. How it is done:
A cell-based microtubule (MT) dynamics assay was conducted with the U2OS-EB3-AG osteosarcoma cell line, in which the fusion protein of EB3 (a microtubule plus end binding protein) and Azami-Green (EB3-AG) was stably expressed. U2OS-EB3-AG cells were culture in RPMI-1640 medium containing 10% FBS, and penicillin-streptomycin, at 37° C. in a humidified 5% CO2 atmosphere. The MT dynamics in the live cells can be visualized as the movement of the comet-like structure of EB3-AG. U2OS-EB3-AG cells plated on glass-base culture plates (EZVIEW plate, AGC Techno Glass, Japan) were treated with Compound (1) at the indicated concentration and the microtubule dynamics were monitored by time-lapse imaging using fluorescent microscope with 60-fold magnification oil-immersed objective lens (BZ-X710, KEYENCE, Japan). Higher magnification views of the boxed areas were shown in inlets. When treated with Compound (1) at 0.5 nM (IC50 value for antiproliferative activity in U2OS-EB3-AG cells), the comet-like structures became hard to observe at around 60 minutes after the addition of the compound.

Test [4] deals with MES-SA (human uterine sarcoma). Nature of the test: In vitro antiproliferative activity, MES-SA. The conditions noted are these: 72 hours. The test is classed as cell-based. The procedure:
(§1) The in vitro antiproliferative assays for Compound (1) were conducted using a small panel of cancer cell lines including human squamous cell carcinoma of the esophagus (OE21, TE-8), human adenocarcinoma of the esophagus (OE33), and human uterine sarcoma (MES-SA, MES-SA-Dx5-Rx1). All cell lines were cultured in RPMI-1640 medium containing 10% FBS, and penicillin-streptomycin (culture medium), in a 5% CO2 incubator (37° C.). To each well of a 96 well plate (Becton, Dickinson and Company, 353219), 75 μL of cell suspension adjusted to a concentration of 4×10^4 cells/mL with the culture medium was added, and the cells were incubated overnight in a 5% CO2 incubator (37° C.). On the next day, 25 μL of Compound (1) in three-fold dilution series suspended in the culture medium was added to each well, and the resultant was incubated for 72 hours in a 5% CO2 incubator (37° C.). Then, cell viability was determined by CellTiter-Glo® Luminescent Cell Viability Assay (Promega) with 2013 EnVision™ Multilabel Reader (Perkin-Elmer, Wellesley, Mass.). Value of the wells containing cells without adding the test compounds was defined as 100% and the value of the wells containing no cells was defined as 0%. […] The P-gp susceptibility was calculated as the ratio of the IC50 value in MES-SA-Dx5-Rx1 cells, which overexpress P-gp, to the IC50 value in MES-SA cells.

In test [5] the test system is MES-SA/Dx5-Rx1 (human uterine sarcoma, overexpress P-gp). Nature of the test: In vitro antiproliferative activity, MES-SA/Dx5-Rx1. The test is classed as cell-based. The conditions noted are these: MES-SA/Dx5-Rx1, 72 hours. The procedure:
as §1

For test [6], the system named is HEC-108 (human endometrial cancer) xenograft. Nature of the test: Antitumor effects in HEC-108 endometrial cancer xenograft model in mice as monotherapy. It is filed as in vivo. The conditions noted are these: 180 μg/kg intravenously on Day 1 and Day 8. The procedure:
A human endometrial cancer cell line HEC-108, which had been cultured in an E-MEM containing 15% FBS and antibiotics were adjusted to a concentration of 7.14×10^7 cells/mL with medium to prepare a cell suspension. The cell suspension was inoculated in a volume of 150 μL into a subcutaneous part of a right flank of athymic mice (CAnN.Cg-Foxnlnu/CrlCrlj, female, 6 weeks old, Charles River Japan Inc.). Thirteen days after cell inoculation (Day 1), the length and the width of a tumor in each mouse were measured by using an electronic digital caliper (Mitutoyo Corporation), so as to calculate the volume of the tumor in accordance with the following calculation formula: Tumor volume (mm^3)=Longest diameter (mm)×Shortest diameter (mm)×Shortest diameter (mm)/2 Relative tumor volume (RTV)=Tumor volume (day X)/Tumor volume (the first day)
On the basis of TV, the mice were randomly grouped (Day 1). Each group was consisted in six mice. Compound (1) was dissolved in DMSO and a solution was stored in the freezer before use. Compound (1) (180 μg/kg) was diluted in saline and intravenously injected on Day 1 and Day 8.

Molecules are shown by their SMILES.

For orientation: IC50 means the midpoint of a concentration-inhibition curve. Read a high IC50 as weaker potency.

In test [1], `C=C1C[C@@H]2CC[C@@]34C[C@H]5O[C@H]6[C@@H](O3)[C@H]3O[C@H](CC[C@@H]3O[C@H]6C5O4)CC(=O)O[C@@H]3[C@@H](C)[C@@H]4O[C@@H]5C[C@]6(C[C@@H]7O[C@]8(C[C@H](C)[C@@H]9O[C@H](CN)[C@H](O)C[C@@H]9O8)C[C@H](C)[C@@H]7O6)O[C@@H]5C[C@@H]4O[C@H]3C[C@H]3O[C@@H](CC[C@@H]1O2)C[C@@H](C)C3=C` [Compound (1)] displayed an IC50 of 0.0668 nM. Also, the “Tumor Regression (%)” value was determined as 59% in test [2] (0.06 mg/kg intravenously) and 90% in test [2] (0.18 mg/kg intravenously). Further, the “effect on microtubule (MT) dynamics” value in test [3] is reported as “had the ability to suppress the MT dynamics”. Further, in test [3] (0.5 nM, after the addition of the compound), the “time at which comet-like structures of EB3-AG became hard to observe” value is “around 60 minutes”. Further, the antiproliferative activity entry in test [4] and in test [5] was “potent antiproliferative agent” in each case. Further, the antitumor activity entry in test [6] was “tumor growth delay”.
